# Measurements: ChEMBL document CHEMBL1201862, “PubChem BioAssay data set” (2004)
# Calls of active or inactive are those of the source.
# Key:
# Nonstructural protein 1 = Nonstructural protein 1 (Influenza A virus, UniProt Q194T2); format: functional, Influenza A virus (A/California/07/2009(H1N1))
# [1] = target: Induced myeloid leukemia cell differentiation protein Mcl-1 (Homo sapiens, UniProt Q07820); format: functional
# Protein RecA = target: T1, Protein RecA (Mycobacterium tuberculosis, UniProt P9WHJ3); experiment: Fluorescence Cell-Free Homogeneous Dose Retest to Identify Inhibitors of RecA-Intein Splicing Activity. [Related pubchem assays (depositor defined):AID2097, AID2223, AID489010, AID492950]; format: functional
# T1 sequence (P9WHJ3 whole entry): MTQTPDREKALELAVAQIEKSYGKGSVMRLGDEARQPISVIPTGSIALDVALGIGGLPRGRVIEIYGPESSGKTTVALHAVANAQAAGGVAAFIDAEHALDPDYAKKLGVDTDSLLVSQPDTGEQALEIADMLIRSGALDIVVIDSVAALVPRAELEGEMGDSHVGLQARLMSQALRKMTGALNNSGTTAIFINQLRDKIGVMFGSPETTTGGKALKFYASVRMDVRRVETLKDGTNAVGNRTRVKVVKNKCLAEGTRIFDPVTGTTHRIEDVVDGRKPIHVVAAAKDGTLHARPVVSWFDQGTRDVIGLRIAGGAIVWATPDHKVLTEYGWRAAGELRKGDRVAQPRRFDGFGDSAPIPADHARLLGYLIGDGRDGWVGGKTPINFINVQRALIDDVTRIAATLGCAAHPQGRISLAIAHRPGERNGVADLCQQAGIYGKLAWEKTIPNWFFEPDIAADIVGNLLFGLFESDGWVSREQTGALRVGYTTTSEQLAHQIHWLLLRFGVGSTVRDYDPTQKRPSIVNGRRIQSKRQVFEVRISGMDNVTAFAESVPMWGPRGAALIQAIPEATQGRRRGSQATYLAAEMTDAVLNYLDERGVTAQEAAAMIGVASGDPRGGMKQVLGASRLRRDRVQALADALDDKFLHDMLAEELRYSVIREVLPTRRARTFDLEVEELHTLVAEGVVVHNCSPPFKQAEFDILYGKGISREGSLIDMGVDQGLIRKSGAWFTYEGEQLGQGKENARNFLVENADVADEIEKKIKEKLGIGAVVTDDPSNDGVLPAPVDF
# [2] = target: T2, Replicative DNA helicase DnaB (Mycobacterium tuberculosis, UniProt P9WMR3); experiment: DnaB intein splicing inhibitors, dose response, biochemical, cell-free fluorescence (AID 449749); format: functional
# T2 sequence (P9WMR3 whole entry): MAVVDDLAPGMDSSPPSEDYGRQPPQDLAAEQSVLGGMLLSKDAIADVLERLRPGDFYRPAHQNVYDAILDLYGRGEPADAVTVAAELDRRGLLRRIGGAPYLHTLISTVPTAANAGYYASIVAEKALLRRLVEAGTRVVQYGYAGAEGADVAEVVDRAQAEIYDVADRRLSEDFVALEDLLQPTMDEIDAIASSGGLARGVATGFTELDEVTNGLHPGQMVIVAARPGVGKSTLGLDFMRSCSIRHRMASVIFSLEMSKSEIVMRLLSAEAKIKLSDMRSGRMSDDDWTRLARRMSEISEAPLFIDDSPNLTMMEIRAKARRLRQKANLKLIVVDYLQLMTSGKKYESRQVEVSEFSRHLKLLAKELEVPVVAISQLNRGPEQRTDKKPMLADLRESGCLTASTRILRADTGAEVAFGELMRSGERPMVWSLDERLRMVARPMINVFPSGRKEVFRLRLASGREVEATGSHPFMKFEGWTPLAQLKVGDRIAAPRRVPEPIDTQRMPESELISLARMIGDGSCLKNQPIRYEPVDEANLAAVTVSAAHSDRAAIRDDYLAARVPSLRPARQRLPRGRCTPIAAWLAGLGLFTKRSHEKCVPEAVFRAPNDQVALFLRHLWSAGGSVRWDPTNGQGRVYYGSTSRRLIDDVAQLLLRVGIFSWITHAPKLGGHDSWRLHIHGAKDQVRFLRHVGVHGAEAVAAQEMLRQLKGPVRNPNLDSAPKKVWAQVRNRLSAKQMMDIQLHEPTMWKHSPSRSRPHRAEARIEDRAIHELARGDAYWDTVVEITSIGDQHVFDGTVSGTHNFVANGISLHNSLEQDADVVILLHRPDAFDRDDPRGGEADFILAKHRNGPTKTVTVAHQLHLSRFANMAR
# [3] = Luminescence Cell-Based Dose Retest to Confirm Inhibitors of Cancer Stem Cells. [Related pubchem assays (depositor defined):AID2717, AID2721]; format: functional; conditions: Homo sapiens
# [4] = Vero E6 cell cytotoxicity, dose response, cytotoxicity control for non-replicating M. tuberculosis project, secondary assay (AID 492998); format: functional, VeroE6; conditions: Vero C1008
# [5] = target: T3, Microphthalmia-associated transcription factor (Homo sapiens, UniProt O75030); experiment: TRPM1 promoter luciferase signal decrease, dose response, MITF inhibitor project, cell-based, SK-MEL-5, cherry-picked, set 3 (AID 493073); format: functional
# T3 sequence (O75030 whole entry): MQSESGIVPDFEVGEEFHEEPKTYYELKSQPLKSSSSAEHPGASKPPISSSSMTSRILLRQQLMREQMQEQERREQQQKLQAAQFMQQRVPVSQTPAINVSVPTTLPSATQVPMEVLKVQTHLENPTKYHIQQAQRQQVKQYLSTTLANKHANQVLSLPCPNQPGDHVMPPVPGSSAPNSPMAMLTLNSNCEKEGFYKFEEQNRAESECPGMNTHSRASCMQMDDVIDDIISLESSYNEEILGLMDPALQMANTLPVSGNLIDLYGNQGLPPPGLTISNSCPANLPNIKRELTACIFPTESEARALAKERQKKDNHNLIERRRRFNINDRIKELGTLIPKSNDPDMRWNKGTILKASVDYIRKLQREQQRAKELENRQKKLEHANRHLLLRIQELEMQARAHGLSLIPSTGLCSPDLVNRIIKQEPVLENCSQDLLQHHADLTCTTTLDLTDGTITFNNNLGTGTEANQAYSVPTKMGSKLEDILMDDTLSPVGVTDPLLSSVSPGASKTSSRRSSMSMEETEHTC
# [6] = THP-1 cell cytotoxicity, dose response, cytotoxicity control for non-replicating M. tuberculosis project (AID 489025); format: functional
# cells = format: functional
# [7] = microbe, parasite or virus in culture; format: functional; conditions: Mycobacterium tuberculosis
# Coagulation factor XII = target: T4, Coagulation factor XII (Homo sapiens, UniProt P00748); format: functional;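 further: activated factor XIIa alpha cleaving a fluorogenic AMC peptide substrate; inhibitor potency from loss of enzyme activity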
# T4 sequence (P00748 whole entry): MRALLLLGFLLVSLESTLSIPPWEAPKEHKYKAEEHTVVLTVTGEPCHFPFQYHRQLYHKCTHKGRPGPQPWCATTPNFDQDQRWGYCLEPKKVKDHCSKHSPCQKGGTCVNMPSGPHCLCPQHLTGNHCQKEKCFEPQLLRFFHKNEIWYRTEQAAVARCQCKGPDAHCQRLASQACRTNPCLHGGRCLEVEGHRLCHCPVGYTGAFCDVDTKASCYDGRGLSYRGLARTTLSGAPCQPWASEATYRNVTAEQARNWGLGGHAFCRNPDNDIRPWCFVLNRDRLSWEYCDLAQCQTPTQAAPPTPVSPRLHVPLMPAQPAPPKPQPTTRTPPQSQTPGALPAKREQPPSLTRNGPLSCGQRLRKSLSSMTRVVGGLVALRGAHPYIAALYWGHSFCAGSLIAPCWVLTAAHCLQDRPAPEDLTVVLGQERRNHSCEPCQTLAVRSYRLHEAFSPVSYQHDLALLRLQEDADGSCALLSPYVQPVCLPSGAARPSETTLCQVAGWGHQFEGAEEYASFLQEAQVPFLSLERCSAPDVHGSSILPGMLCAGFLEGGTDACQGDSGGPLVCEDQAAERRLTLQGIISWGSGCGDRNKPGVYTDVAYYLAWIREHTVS
# [8] = Luminescence Cell-Based Dose Confirmation HTS to Identify Activators of 5'UTR Stem-Loop Driven Alpha-Synuclein mRNA Translation in H4 Neuroglioblastoma Cells. [Related pubchem assays: 1829 (Project Summary), 1814 (Primary HTS)]; format: functional
# Cytochrome P450 3A4 = Cytochrome P450 3A4 (Homo sapiens, UniProt P08684);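 further: CYP3A4 tested as one member of a cytochrome P450 panel screen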
# Cytochrome P450 1A2 = target: T5, Cytochrome P450 1A2 (Homo sapiens, UniProt P05177);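 further: PubChem cytochrome P450 panel assay, CYP1A2 panel member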
# T5 sequence (P05177 whole entry): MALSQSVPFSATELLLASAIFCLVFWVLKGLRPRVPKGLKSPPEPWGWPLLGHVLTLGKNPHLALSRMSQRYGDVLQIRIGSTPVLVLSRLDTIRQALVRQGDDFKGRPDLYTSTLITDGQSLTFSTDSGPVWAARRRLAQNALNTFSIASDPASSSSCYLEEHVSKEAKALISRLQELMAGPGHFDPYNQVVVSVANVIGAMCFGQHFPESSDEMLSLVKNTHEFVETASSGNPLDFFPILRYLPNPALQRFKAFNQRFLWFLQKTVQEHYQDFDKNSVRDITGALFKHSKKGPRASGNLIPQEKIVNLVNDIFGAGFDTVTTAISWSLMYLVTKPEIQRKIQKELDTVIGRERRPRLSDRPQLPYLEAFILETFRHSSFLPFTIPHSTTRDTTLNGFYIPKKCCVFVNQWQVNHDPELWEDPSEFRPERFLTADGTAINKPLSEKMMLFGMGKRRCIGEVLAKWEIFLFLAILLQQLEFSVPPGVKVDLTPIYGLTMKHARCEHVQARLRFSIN
# [9] = Luminescence Cell-Based Dose Response HTS to Identify Activators of Luciferase Translation or Activity in H4 […] Cells. [Related pubchem assays: 1829 (Project Summary), 1814 (Primary HTS)]; format: functional
# H4 = experiment: Luminescence Cell-Based Dose Response HTS to Identify Activators of 5'UTR Stem-Loop Driven Prion Protein mRNA Translation in H4 Neuroglioblastoma Cells. [Related pubchem assays: 1829 (Project Summary), 1814 (Primary HTS)]; format: functional; conditions: Homo sapiens
# [10] = inhibitors of intracellular T. cruzi replication, confirmation, NIH3T3 host cells, beta-gal luminescence (AID 2044); format: functional, cell-based;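 further: intracellular parasites grown in NIH/3T3 mouse fibroblasts as host cells; luminescent beta-galactosidase reporter signal from transgenic T. cruzi replicating inside host cells; inhibitors lower the luminescence signal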
# [11] = cytotoxicity toward NIH3T3 fibroblasts, dose response, counter-screen, cell-based, ATP luminescence, mouse fibroblasts (AID 2010); format: functional;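 further: cells exposed to compound for about 90 hours before reading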
# [12] = target: DNA dC->dU-editing enzyme APOBEC-3G (Homo sapiens, UniProt Q9HC16); format: functional;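 further: Dose-response counterscreen measuring inhibition of APOBEC3G DNA deaminase activity, run while confirming APOBEC3A inhibitors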
# [13] = target: DNA dC->dU-editing enzyme APOBEC-3A (Homo sapiens, UniProt P31941); experiment: Dose Response confirmation of small molecule APOBEC3A DNA Deaminase Inhibitors via a fluorescence-based single-stranded DNA deaminase assay. [Related pubchem assays (depositor defined):AID493011, AID493024]; format: functional
# [14] = growth suppression of PTEN-null colon cells, dose response, cell-based, HCT116 PTEN knockout (AID 1047); format: functional;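 further: HCT116 colon tumor cells with PTEN knocked out; cells exposed to compound for 60 hours before readout; potency for loss of cell viability measured by luminescence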
# [15] = target: T6, Ubiquitin-conjugating enzyme E2 N (Homo sapiens, UniProt P61088); format: functional;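 further: Dose-response confirmation in a TR-FRET assay detecting UBC13-driven polyubiquitin chain formation, inhibition measured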
# T6 sequence (P61088 whole entry): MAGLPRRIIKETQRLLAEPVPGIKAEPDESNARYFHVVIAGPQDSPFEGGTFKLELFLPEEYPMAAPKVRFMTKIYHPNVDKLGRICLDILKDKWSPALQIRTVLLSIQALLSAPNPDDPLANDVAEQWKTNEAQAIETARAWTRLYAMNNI
# [16] = growth suppression of beta-catenin-knockout colon cells, dose response, cell-based, HCT116, human colon tumor (AID 1045); format: functional;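 further: HCT116 colon tumor cells with beta catenin knocked out; cells exposed to compound for 60 hours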
# [17] = HEp-2 cell cytotoxicity, dose response, cytotoxicity control for RSV inhibitor project, HTS (AID 2410); format: functional; conditions: human respiratory syncytial virus
# Sequence of Cytochrome P450 3A4 (P08684 whole entry): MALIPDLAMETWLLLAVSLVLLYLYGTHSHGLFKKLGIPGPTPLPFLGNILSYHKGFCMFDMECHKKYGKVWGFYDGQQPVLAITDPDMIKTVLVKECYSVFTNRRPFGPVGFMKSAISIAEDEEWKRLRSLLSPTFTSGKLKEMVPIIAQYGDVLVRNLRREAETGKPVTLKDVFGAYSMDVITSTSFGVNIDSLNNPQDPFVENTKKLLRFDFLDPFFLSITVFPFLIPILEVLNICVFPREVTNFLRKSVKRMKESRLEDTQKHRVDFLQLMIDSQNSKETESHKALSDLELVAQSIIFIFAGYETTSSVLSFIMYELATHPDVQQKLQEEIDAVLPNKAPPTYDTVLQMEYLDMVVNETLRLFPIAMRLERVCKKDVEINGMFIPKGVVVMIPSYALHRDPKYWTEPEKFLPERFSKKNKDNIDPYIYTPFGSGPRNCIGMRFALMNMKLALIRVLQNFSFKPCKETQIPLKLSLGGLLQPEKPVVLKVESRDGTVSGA
# Sequence of Nonstructural protein 1 (Q194T2 whole entry): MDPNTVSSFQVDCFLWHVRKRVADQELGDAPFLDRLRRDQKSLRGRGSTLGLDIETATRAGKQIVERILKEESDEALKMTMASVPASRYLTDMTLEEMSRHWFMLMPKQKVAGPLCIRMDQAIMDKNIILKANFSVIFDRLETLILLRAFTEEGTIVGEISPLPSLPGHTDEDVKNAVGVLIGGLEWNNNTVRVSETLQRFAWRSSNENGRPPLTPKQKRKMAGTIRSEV
# Sequence of DNA dC->dU-editing enzyme APOBEC-3G (Q9HC16 whole entry): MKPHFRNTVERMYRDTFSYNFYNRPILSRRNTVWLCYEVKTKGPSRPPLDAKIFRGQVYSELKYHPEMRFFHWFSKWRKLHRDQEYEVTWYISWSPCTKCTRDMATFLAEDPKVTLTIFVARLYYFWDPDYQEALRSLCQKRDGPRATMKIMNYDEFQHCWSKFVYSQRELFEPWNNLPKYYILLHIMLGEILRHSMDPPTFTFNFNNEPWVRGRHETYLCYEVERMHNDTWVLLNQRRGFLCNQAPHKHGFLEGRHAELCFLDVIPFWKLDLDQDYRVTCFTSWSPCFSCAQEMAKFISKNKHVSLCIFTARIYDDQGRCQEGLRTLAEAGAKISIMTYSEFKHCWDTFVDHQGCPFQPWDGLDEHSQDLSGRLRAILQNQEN
# Sequence of DNA dC->dU-editing enzyme APOBEC-3A (P31941 whole entry): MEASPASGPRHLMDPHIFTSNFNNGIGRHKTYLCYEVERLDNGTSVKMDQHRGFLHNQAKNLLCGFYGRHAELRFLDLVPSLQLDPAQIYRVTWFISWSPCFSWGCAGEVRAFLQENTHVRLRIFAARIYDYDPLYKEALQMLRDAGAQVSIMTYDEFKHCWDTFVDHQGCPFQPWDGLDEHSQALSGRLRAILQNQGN
# Sequence of Induced myeloid leukemia cell differentiation protein Mcl-1 (Q07820 whole entry): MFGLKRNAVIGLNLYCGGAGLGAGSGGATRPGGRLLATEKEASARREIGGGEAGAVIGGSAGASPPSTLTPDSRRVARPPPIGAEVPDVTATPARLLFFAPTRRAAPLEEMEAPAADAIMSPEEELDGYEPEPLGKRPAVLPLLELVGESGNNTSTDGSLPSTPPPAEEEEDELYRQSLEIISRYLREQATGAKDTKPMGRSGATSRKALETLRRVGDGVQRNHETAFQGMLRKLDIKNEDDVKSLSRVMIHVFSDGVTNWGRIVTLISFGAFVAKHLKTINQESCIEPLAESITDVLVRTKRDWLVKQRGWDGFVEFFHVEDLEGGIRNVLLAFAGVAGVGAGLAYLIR
smiles,measurement,setting,value
c1cncc(C2Nc3cccc4cccc(c34)N2)c1,IC50,Nonstructural protein 1,> 100 µM (active)
same,IC50,[1],9.59 µM (active)
Cc1ccc(C)c(NC(=O)CSc2n[nH]c(-c3ccccn3)n2)c1,EC50,Protein RecA,> 380 µM (inactive)
same,AC50,[2],163 µM (active)
same,IC50,Nonstructural protein 1,5.46 µM (active)
COc1ccccc1OCCN1CSC(=S)N(C)C1,AC50,[3],2.4 µM (active)
same,CC50,[4],5.83 µM (active)
same,AC50,[5],12.2 µM (active)
same,CC50,[6],6.71 µM (active)
same,IC50,cells,6.69 µM (active)
same,CC50,[7],7.54 µM (active)
Nc1n[nH]c(SCn2nnc3ccccc3c2=O)n1,IC50,Coagulation factor XII,> 50 µM (inactive)
NNC(=O)c1ccc(CSc2nc3ccccc3s2)cc1,IC50,Coagulation factor XII,> 50 µM (inactive)
CCc1nnc(NC(=O)c2cc(-c3ccccc3)nn2-c2ccccc2)s1,EC50,[8],> 120 µM (not active)
same,AC50,Cytochrome P450 3A4,inconclusive
same,AC50,Cytochrome P450 1A2,15.8 µM (inconclusive)
same,EC50,[9],7.74 µM (active)
same,EC50,H4,> 120 µM (not active)
Cc1ccc(C(=O)C(=O)c2ccc(C)c(N)c2)cc1N,IC50,Coagulation factor XII,15.7 µM (active)
CC(=O)N1CCC2(CC1)CN(C(c1ccccc1)c1ccccc1)C2,AC50,Cytochrome P450 3A4,inconclusive
COc1ccc(CNC(=O)C2CSC(=O)C2)cc1 (stereo unspecified),AC50,Cytochrome P450 3A4,inconclusive
same,EC50,[10],> 30 µM (not active)
same,EC50,[11],10.3 µM (active)
CC1CCCC(C2(O)C(=O)Nc3ccccc32)C1=O (stereo unspecified),IC50,[12],5.64 µM (active)
same,IC50,[13],5.46 µM (active)
CCCN(C/C=C\I)[C@@H]1CCc2cccc(O)c2C1,AC50,Cytochrome P450 3A4,inconclusive
CCN1C(NCCOC)=N[C@@H](c2cccc(C(F)(F)F)c2)C(C(=O)OC)=C1C,IC50,[12],1.95 µM (active)
same,IC50,[13],2.09 µM (active)
CCCCCCCSc1cc(OC)c(CCN(C)C)cc1OC,EC50,[14],9.16 µM (active)
same,IC50,[15],> 20 µM (inactive)
same,IC50,Nonstructural protein 1,44.4 µM (active)
same,EC50,[16],7.83 µM (active)
same,CC50,[17],21.3 µM (active)
COc1ccc(/C=C2/SC(=S)N(n3c(C)ccc3C)C2=O)cc1,IC50,Coagulation factor XII,> 50 µM (inactive)
O=C(NC(=S)N1CCN(Cc2ccc3c(c2)OCO3)CC1)c1ccc(Cl)cc1,CC50,[4],19.2 µM (active)
same,IC50,cells,18.1 µM (active)
